Test results reported in patent publication US5888972A, “Peptide compounds, their preparation and uses” (Fujisawa Pharmaceutical Co., Ltd., priority 1993, dated 1999).

Molecular target: endothelin receptors
Test: Radioligand binding assay: [^125 I]ET-1 binding in porcine kidney membrane
Details: membranes from inner medulla of porcine kidney; [^125 I]ET-1 16 pM; 60 minutes at 23° C.; read-out: Effect on specific binding of [^125 I]ET-1 in porcine kidney membrane, IC50
Method: Radioligand binding assay:
(a) Crude receptor membrane preparation:
Membranes as endothelin receptors were isolated from inner medulla of porcine kidney. The inner medulla of porcine kidney was placed in ice-cold buffer (0.25M sucrose, 5 mM Tris-HCl, 0.1 mM EDTA, pH 7.5). The inner medulla was homogenized in five volumes (w/v) of ice-cold buffer using a Brinkman Polytron PT-10 at a setting of 16,000 rpm for three 10-sec periods. The homogenate was centrifuged at 10,000×g for 20 minutes at 4° C. The pellet was discarded and the supernatant was centrifuged at 100,000×g for 60 minutes at 4° C. […]
To determine [^125 I]ET-1 binding to kidney, membrane suspensions prepared from kidney (10 μg of protein) were incubated by constant shaking for 60 minutes at 23° C. with [^125 I]ET-1 (range, 4-900 pM) in a total volume of 250 μl of buffer 1 that contained 0.1 mg/ml of bovine serum albumin. […] The filter disks were washed three times with 0.2 ml of ice-cold 50 mM Tris-HCl buffer (pH 7.5), and the radioactivity was counted in a gamma counter (Hewlett-Packard) with an efficiency of 71%. […] The Kd was determined by Scatchard analysis. […]

IC50: 68 nM
SMILES: CC(C)C[C@@H](C(=O)N[C@H](Cc1cccc2ccccc12)C(=O)N[C@@H](C(=O)O)C(C)C)N(CCN(C)Cc1cccnc1)C(=O)Cc1ccccc1Cl [Compound A]
